Common to all, as to assay type: cell-based
Test [1] has as its target p-EGFR Del19/C797S (H1975-clone #23 cells) (Homo sapiens, UniProt P00533). As to the kind of experiment: Cell p-EGFR inhibition assay, HTRF, H1975-clone#23 (DEL19/C797S) cells. To be noted: 16 h treatment; for Imax (%): maximum percentage of pEGFR inhibition; for IC50: pEGFR inhibition. An outline of the steps: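 Phospho-EGFR read by overnight HTRF on lysates, normalized to DMSO-treated high control; IC50, Hill slope and Imax fitted. Compounds were applied for 16 h (10 uM top, 5-fold steps, 8 doses) to an H1975 single clone carrying only exogenous Del19/C797S EGFR after sgRNA knockout of endogenous copies.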
On the technique in general: Time-resolved FRET reads energy transfer from a long-lived donor to a nearby acceptor.

Test [2] concerns the target T1, EGFR-L858R/C797S (H1975-clone #8 cells) (Homo sapiens, UniProt P00533, C797S/L858R).
T1 construct: expressed in transfected cells; host or cells: H1975 (endogenous EGFR knocked out, clone #8)
As to the kind of experiment: Cell degradation of EGFR, HTRF assay, H1975-clone#8 (L858R/C797S) cells. To be noted: 16 h treatment; for DC50: EGFR degradation; for Dmax: maximum percentage of degradation.

Test [3] addresses T2, EGFR L858R (BaF3-L858R cells) (Homo sapiens, UniProt P00533, L858R).
T2 construct: host or cells: BaF3
As to the kind of experiment: Cell degradation of EGFR, HTRF assay, BaF3-L858R cells. As to conditions: 16 h treatment; for DC50: EGFR degradation; for Dmax: maximum percentage of degradation. An outline of the steps: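 BaF3-L858R cells treated 16 h at 37° C, 5% CO2 with compound (top 10 uM final, 5-fold, 8 doses, 0.1% DMSO). DC50 from four-parameter fit; Dmax is maximum percent degradation.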

Test [4] addresses T3, p-EGFR L858R (BaF3-L858R cells) (Homo sapiens, UniProt P00533, L858R).
T3 construct: host or cells: BaF3
Nature of the test: Cell p-EGFR inhibition assay, HTRF, BaF3-L858R cells. To be noted: 16 h treatment; for Imax (%): maximum percentage of pEGFR inhibition; for IC50: pEGFR inhibition. The method, boiled down: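 BaF3-L858R cells treated 16 h at 37 °C, 5% CO2 with compound from 10 uM top, 5-fold dilutions, 8 doses, in 0.1% DMSO medium. Lysates read overnight by HTRF p-EGFR antibodies; IC50 fitted to four-parameter curve against DMSO high control.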

Broadly, the IC50 is the concentration that gives 50% inhibition. As a reminder, the DC50 is the concentration giving 50% degradation. Higher therefore signals a less potent degrader. As a reminder, the Dmax is the greatest extent of degradation seen. Low readings indicate a partial loss of target, high ones a fuller loss of target.

Consider `COc1cc2c(cc1N1CCN(C3CCN(c4cc(F)c([C@H]5CCC(=O)NC5=O)c(F)c4)CC3)CC1)N1C[C@@H]3CC[C@H](COc4c(c(C)nn4C)-c4cc(cc(C)n4)C(=O)/N=C/1N2)C3` [Example 152, (R)-3-(2,6-difluoro-4-(4-(4-((7^1R,7^3S,E)-5^5-methoxy-1^1,1^3,2^6-trimethyl-3-oxo-5^2,5^3-dihydro-1^1H,5^1H-9-oxa-4-aza-5(2,1)-benzo[d]imidazola-2(2,4)-pyridina-1(4,5)-pyrazola-7(1,3)-cyclopentanacyclononaphane-5^6-yl)piperazin-1-yl)piperidin-1-yl)phenyl)piperidine-2,6-dione], for which the “Imax (%)” value in test [1] is given as 100.06%; in test [4] it was 95.61%. The IC50 was 2.46 nM in test [1] and 15 nM in test [4]. Further, the half-maximal degradation concentration (DC50) in test [2] came out at 1.28 nM; in test [3] it was 1.19 nM. The Dmax in test [2] stood at 88.7%; in test [3], 86.6%.
As for `COC[C@@H]1CN(c2ccc3c(c2)N2CC4CC[C@H](COc5c(cnn5C)-c5cc(cc(C)n5)C(=O)/N=C/2N3)C4)CCN1C1CCN(c2c(F)cc(NC3CCC(=O)NC3=O)cc2F)CC1` (stereo partly drawn) [Example 93, 3-((4-(4-((S)-4-((7^1R,7^3S,E)-1^1,2^6-dimethyl-3-oxo-5^2,5^3-dihydro-1^1H,5^1H-9-oxa-4-aza-5(2,1)-benzo[d]imidazola-2(2,4)-pyridina-1(4,5)-pyrazola-7(1,3)-cyclopentanacyclononaphane-5^6-yl)-2-(methoxymethyl)piperazin-1-yl)piperidin-1-yl)-3,5-difluorophenyl)amino)piperidine-2,6-dione], in test [1], the “Imax (%)” value is listed as 100.3% and the IC50 came out at 2 nM. In test [2], this compound returned a 50% degradation concentration (DC50) of 7.66 nM and a Dmax of 83.8%. For the same compound, in test [3], the DC50 turned out to be 9.09 nM and the Dmax was found to be 77.4%. In test [4], the “Imax (%)” value was found to be 96.9% and the IC50 is 19.6 nM.
For `COC[C@@H]1CN(c2ccc3c(c2)N2C[C@@H]4CC[C@H](COc5c(cnn5C)-c5cc(cc(C)n5)C(=O)/N=C/2N3)C4)CCN1CC1CN(c2ccc3c(c2)C(=O)N(C2CCC(=O)NC2=O)C3=O)C1` (stereo partly drawn) [Example 69, 5-(3-(((S)-4-((7^1R,7^3S,E)-1^1,2^6-dimethyl-3-oxo-5^2,5^3-dihydro-1^1H,5^1H-9-oxa-4-aza-5(2,1)-benzo[d]imidazola-2(2,4)-pyridina-1(4,5)-pyrazola-7(1,3)-cyclopentanacyclononaphane-5^6-yl)-2-(methoxymethyl)piperazin-1-yl)methyl)azetidin-1-yl)-2-(2,6-dioxopiperidin-3-yl)isoindoline-1,3-dione], in test [1], the “Imax (%)” value amounted to 100.1% and the half-maximal inhibitory concentration (IC50) amounted to 1.8 nM. In test [2], this compound returned a DC50 of 5.24 nM and a Dmax of 62.4%. In test [3], the DC50 came to 3.2 nM and the Dmax is 89.3%. For the same compound, in test [4], the “Imax (%)” value was determined as 99.9% and the IC50 amounted to 5.7 nM.
As to `COC[C@H]1CN(c2ccc3c(c2)N2C[C@@H]4CC[C@H](COc5c(c(C)nn5C)-c5cc(cc(Cl)n5)C(=O)/N=C/2N3)C4)CCN1C1CCN(c2cc(F)c([C@H]3CCC(=O)NC3=O)c(F)c2)CC1` [Example 176, (R)-3-(4-(4-((R)-4-((7^1R,7^3S,E)-2^6-chloro-1^1,1^3-dimethyl-3-oxo-5^2,5^3-dihydro-1^1H,5^1H-9-oxa-4-aza-5(2,1)-benzo[d]imidazola-2(2,4)-pyridina-1(4,5)-pyrazola-7(1,3)-cyclopentanacyclononaphane-5^6-yl)-2-(methoxymethyl)piperazin-1-yl)piperidin-1-yl)-2,6-difluorophenyl)piperidine-2,6-dione], in test [1], the “Imax (%)” value stood at 101.78% and the 50% inhibitory concentration (IC50) came out at 3.6 nM. Moreover, in test [2], the 50% degradation concentration (DC50) is 10.7 nM and the Dmax is 85.4%. In test [3], this compound registered a half-maximal degradation concentration (DC50) of 8.27 nM and a Dmax of 89%. In addition, in test [4], the “Imax (%)” value was found to be 94.16% and 15.2 nM corresponded to half-maximal inhibition (IC50).
With `COC[C@H]1CN(c2ccc3c(c2)N2CC4CC[C@H](COc5c(c(C(F)F)nn5C)-c5cc(cc(C)n5)C(=O)/N=C/2N3)C4)CCN1C1CCN(c2cc(F)c([C@H]3CCC(=O)NC3=O)c(F)c2)CC1` [Example 104, (R)-3-(4-(4-((R)-4-((7^1R,7^3S,E)-1^3-(difluoromethyl)-1^1,2^6-dimethyl-3-oxo-5^2,5^3-dihydro-1^1H,5^1H-9-oxa-4-aza-5(2,1)-benzo[d]imidazola-2(2,4)-pyridina-1(4,5)-pyrazola-7(1,3)-cyclopentanacyclononaphane-5^6-yl)-2-(methoxymethyl)piperazin-1-yl)piperidin-1-yl)-2,6-difluorophenyl)piperidine-2,6-dione], in test [1], the “Imax (%)” value is 100.5% and the IC50 was 2 nM. For the same compound, in test [2], the half-maximal degradation concentration (DC50) worked out at 3.7 nM and the maximal degradation (Dmax) amounted to 86.9%. In test [3], this compound displayed a DC50 of 4.1 nM and a maximal degradation (Dmax) of 83.2%. For the same compound, in test [4], the “Imax (%)” value came to 95% and the IC50 was determined as 4.4 nM.
For the compound `COC[C@@H]1CN(c2ccc3c(c2)N2C[C@@H]4CC[C@H](COc5c(c(C)nn5CCO)-c5cc(cc(C)n5)C(=O)/N=C/2N3)C4)CCN1C1CCN(c2cc(F)c([C@H]3CCC(=O)NC3=O)c(F)c2)CC1` [Example 157, (R)-3-(2,6-difluoro-4-(4-((S)-4-((7^1R,7^3S,E)-1^1-(2-hydroxyethyl)-1^3,2^6-dimethyl-3-oxo-5^2,5^3-dihydro-1^1H,5^1H-9-oxa-4-aza-5(2,1)-benzo[d]imidazola-2(2,4)-pyridina-1(4,5)-pyrazola-7(1,3)-cyclopentanacyclononaphane-5^6-yl)-2-(methoxymethyl)piperazin-1-yl)piperidin-1-yl)phenyl)piperidine-2,6-dione], in test [1], the “Imax (%)” value is 100.52% and the IC50 is 1.1 nM. Moreover, in test [2], the DC50 turned out to be 1.88 nM and the greatest degradation seen (Dmax) stood at 88%. For the same compound, in test [3], it took 2.03 nM to reach half-maximal degradation (DC50) and the Dmax is 85.8%. Also, in test [4], the “Imax (%)” value was 96.89% and the IC50 amounted to 2.87 nM.
For the compound `COC[C@H]1CN(c2ccc3c(c2)N2C[C@@H]4CC[C@H](COc5c(c(C)nn5C)-c5cc(cc(C)n5)C(=O)/N=C/2N3)C4)CCN1C1CCN(c2c(C)cc(C3CCC(=O)NC3=O)nc2C)CC1` (stereo partly drawn) [Example 141, 3-(5-(4-((R)-2-(methoxymethyl)-4-((7^1R,7^3S,E)-1^1,1^3,2^6-trimethyl-3-oxo-5^2,5^3-dihydro-1^1H,5^1H-9-oxa-4-aza-5(2,1)-benzo[d]imidazola-2(2,4)-pyridina-1(4,5)-pyrazola-7(1,3)-cyclopentanacyclononaphane-5^6-yl)piperazin-1-yl)piperidin-1-yl)-4,6-dimethylpyridin-2-yl)piperidine-2,6-dione], the “Imax (%)” value was found to be 100.38% in test [1] and 98.22% in test [4]. Besides, the IC50 in test [1] is 0.825 nM; in test [4], 7.7 nM. Further, the values for the DC50 in test [2] and in test [3] were 0.804 nM and 1.13 nM, respectively. Further, the Dmax is 66.1% in test [2] and 87.5% in test [3].
`Cc1cc2cc(n1)-c1cnn(C)c1OC[C@H]1CCC(C1)CN1/C(=N/C2=O)Nc2ccc(N3CCC(N4CCC(Oc5cc(F)c([C@H]6CCC(=O)NC6=O)c(F)c5)CC4)CC3)cc21` [Example 113, (R)-3-(4-((1′-((7^1R,7^3S,E)-1^1,2^6-dimethyl-3-oxo-5^2,5^3-dihydro-1^1H,5^1H-9-oxa-4-aza-5(2,1)-benzo[d]imidazola-2(2,4)-pyridina-1(4,5)-pyrazola-7(1,3)-cyclopentanacyclononaphane-5^6-yl)-[1,4′-bipiperidin]-4-yl)oxy)-2,6-difluorophenyl)piperidine-2,6-dione]: the “Imax (%)” value in test [1] is given as 99%; in test [4], 94.6%. For the same compound, the IC50 in test [1] stood at 0.7 nM; in test [4] it was 17.1 nM. The DC50 came out at 2.69 nM in test [2] and 3.49 nM in test [3]. The Dmax in test [2] came out at 77.3%; in test [3], 70.5%.
Turning to `Cc1cc2cc(n1)-c1c(C)nn(C)c1OC[C@H]1CC[C@H](C1)CN1/C(=N/C2=O)Nc2ccc(N3CCN(CC4CN(c5cc(F)c([C@H]6CCC(=O)NC6=O)c(F)c5)C4)[C@H](C(F)F)C3)cc21` [Example 205, (R)-3-(4-(3-(((S)-2-(difluoromethyl)-4-((7R,7^3S,E)-1^1,1^3,2^6-trimethyl-3-oxo-5^2,5^3-dihydro-1^1H,5^1H-9-oxa-4-aza-5(2,1)-benzo[d]imidazola-2(2,4)-pyridina-1(4,5)-pyrazola-7(1,3)-cyclopentanacyclononaphane-5^6-yl)piperazin-1-yl)methyl)azetidin-1-yl)-2,6-difluorophenyl)piperidine-2,6-dione], the results for the “Imax (%)” value in test [1] and in test [4] were 99.83% and 92.5%, respectively. Also, the IC50 turned out to be 0.539 nM in test [1] and 1.22 nM in test [4]. For the same compound, the DC50 in test [2] turned out to be 3.05 nM; in test [3], 5.75 nM. Moreover, the Dmax in test [2] worked out at 85.8%; in test [3], 90.3%.

Values taken from patent US20240425523A1, “Compounds for the Degradation of EGFR Kinase” (Beigene Switzerland GMBH, priority 2023, published 2024).
